Test results from patent US20160051514A1, “METHODS FOR TREATMENT OF CARDIOMYOPATHY” (THE BRIGHAM AND WOMEN'S HOSPITAL, INC., priority 2013, published 2016).
Entries after “also recorded” stand apart in the source; their conditions may differ.

Assays:
[1] = system: neonatal rat ventricular myocytes expressing 2057del2 plakoglobin; test: TUNEL assay of myocyte apoptosis; format: cell-based; settings: cells expressing 2057del2 plakoglobin, SB216763
Source text: TUNEL assay: Apoptotic cells in cultures were detected by terminal deoxynucleotidyl transferase-mediated biotinylated UTP nick end-labeling (TUNEL) assay using the ApopTag™ Fluorescein Direct in Situ Apoptosis Detection Kit (Millipore) as previously described.^9 Nuclei were stained with DAPI, and TUNEL-positive and total nuclei were counted under a laser scanning confocal microscope in 5 fields per chamber.
TUNEL assay: Apoptotic cells in cultures were detected by terminal deoxynucleotidyl transferase-mediated biotinylated UTP nick end-labeling (TUNEL) assay using the ApopTag Fluorescein Direct in Situ Apoptosis Detection KitTM (Millipore) according to the manufacturer's instructions. Nuclei were stained with DAPI; TUNEL-positive and total nuclei were counted under a laser scanning confocal microscope in 5 fields per chamber or silicone membrane in stretch experiments.

[2] = system: 2057del2 plakoglobin (Plk) transgenic mice; test: Mouse model of AC: transgenic cardiac myocyte-specific 2057del2 plakoglobin (Plk); format: in vivo; settings: daily injections for 6 weeks
Description: 2 different mouse models of AC were studied: a transgenic line with cardiac myocyte-specific expression of 2057del2 plakoglobin (Plk) and a mutant desmoglein-2 (Dsg2) knock-in model. ECG telemetry and echocardiographic analyses were performed in mutant and wildtype mice treated with daily injections of SB216763 or vehicle for 6 (2057del2 Plk) or 13 (Dsg2) weeks. Hearts excised at selected time points were analyzed for histology, apoptosis and distribution of key intercalated disk proteins.

[3] = system: neonatal rat ventricular myocytes expressing 2057del2 plakoglobin; test: Western immunoblotting of total cellular protein content; format: cell-based
Description: (§1) Western Immunoblotting: Cells were washed in PBS and scraped from culture dishes in a low ionic strength buffer containing protease inhibitors (1 mM NaHCO3, 5 mM EDTA, 1 mM EGTA, 1 μM leupeptin, 1 μM pepstatin, 0.1 μM aprotinin, 1 mM benzamidine, 1 mM iodoacetamide, 1 mM phenylmethylsulfortylfluoride). Following centrifugation, the pellet was resuspended in the same buffer and aliquots containing 10 μg of total protein were analyzed by SDS polyacrylamide gel electrophoresis. Proteins were detected by enhanced chemiluminescence (ECL. Amersham Corp). All blots were stripped in 62.5 mM Tris-HCl, pH 6.8, 100 mM β-mercapto-ethanol, and re-probed with a mouse monoclonal anti-GAPDH antibody (Fitzgerald) as a loading control.
as §1, with “phenylmethylsulfonylfluoride).” for “phenylmethylsulfortylfluoride).”, “(ECL,” for “(ECL.”

Structure (SMILES): Cn1cc(C2=C(c3ccc(Cl)cc3Cl)C(=O)NC2=O)c2ccccc21 [SB216763]
- Myocyte apoptosis (TUNEL-positive nuclei) [1]: dramatically reduced the number of TUNEL positive nuclei; also recorded: significantly reduced the mean apoptosis index
- Myocyte apoptosis (TUNEL-positive nuclei) ([1]; listed as SAB216763): totally abolished
- Myocyte necrosis, fibrosis and inflammation [2]: nearly absent
- Redistribution of junctional signals for Plk, Cx43 and SAP97, and myocardial apoptosis [2]: normalized
- PVCs ([2]; ECG telemetry): 2.8 ± 0.6 min⁻¹
- Total cellular content of Nav1.5 [3]: nor did exposure to SB216763 affect overall levels of Nav1.5; also recorded: without an apparent change in total cellular content of SAP97 and Nav1.5
- Total cellular content of SAP97 [3]: without apparent changes in the total amount of SAP97; also recorded: without an apparent change in total cellular content of SAP97 and Nav1.5
- Total cellular content of plakoglobin [3]: no apparent change in the total cellular content of plakoglobin; also recorded: had no apparent effect on plakoglobin expression levels
- Total cellular content / expression of Cx43 ([3]; control and transfected myocytes, listed as SB2): Increased Cx43 expression was observed
